Here are results for 17 molecules from patent US11166959B2, “Isofuranone compounds useful as HPK1 inhibitors” (BRISTOL-MYERS SQUIBB COMPANY, priority 2017, dated 2021).

Where two headings read alike, the source gives them in different places. Bounds are passed on as bounds.

The term IC50 denotes the point on the concentration scale where inhibition reaches its midpoint.

For one test, the target named is T1, HPK1 (Homo sapiens, UniProt Q92918).
T1 construct: purchased SignalChem M23-11G
T1 sequence (Q92918 1-346 limits assumed): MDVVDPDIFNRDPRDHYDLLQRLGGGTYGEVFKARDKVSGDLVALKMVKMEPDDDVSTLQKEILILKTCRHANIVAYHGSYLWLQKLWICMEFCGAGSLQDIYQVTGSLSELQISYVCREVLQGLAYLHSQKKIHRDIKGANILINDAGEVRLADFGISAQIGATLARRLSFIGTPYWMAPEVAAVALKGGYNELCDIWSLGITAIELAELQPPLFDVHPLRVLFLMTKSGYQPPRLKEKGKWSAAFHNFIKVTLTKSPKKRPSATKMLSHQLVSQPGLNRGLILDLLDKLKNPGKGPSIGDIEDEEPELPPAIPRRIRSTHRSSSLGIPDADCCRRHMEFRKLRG
Nature of the test: HPK1 Inhibition Assay (kinase reaction, Caliper capillary electrophoresis). It is filed as biochemical. To be noted: for IRAK4/HPK1 Ratio: ratio of the IRAK4 IC50 value to the HPK1 IC50 value. Here is the method: The reactions were incubated out for three hours and quenched with 1 mM EDTA solution. The reaction incubation time and enzyme concentration were optimized to obtain a maximum peptide substrate conversion of 20-30%. The reaction mixtures were analyzed by capillary electrophoresis on a Caliper LabChip EZ Reader to resolve phosphorylated and unphosphorylated peptide species and determine peptide substrate conversion. […] The compounds were dissolved in DMSO and evaluated at 11 concentrations to determine the IC50 values.

The next test concerns the target T2, IRAK4 (Homo sapiens, UniProt Q9NWZ3).
T2 construct: 1 nM IRAK4 (160-460); purchased SignalChem M24016
T2 sequence (Q9NWZ3 160-460): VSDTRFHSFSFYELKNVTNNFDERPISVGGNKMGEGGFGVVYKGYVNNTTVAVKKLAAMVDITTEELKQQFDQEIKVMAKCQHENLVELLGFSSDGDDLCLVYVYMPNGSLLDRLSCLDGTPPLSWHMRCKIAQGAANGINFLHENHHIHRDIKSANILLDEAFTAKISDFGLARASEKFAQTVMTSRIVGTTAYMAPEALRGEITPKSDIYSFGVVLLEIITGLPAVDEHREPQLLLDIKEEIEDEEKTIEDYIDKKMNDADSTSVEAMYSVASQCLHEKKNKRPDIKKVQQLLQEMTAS
Briefly: IRAK4 Inhibition Assay (kinase reaction, Caliper capillary electrophoresis). To be noted: 500 μM ATP, 11 concentrations. It is filed as biochemical. Here is the method:
The reactions were incubated out for three hours and quenched with 1 mM EDTA solution. The reaction incubation time and enzyme concentration were optimized to obtain a maximum peptide substrate conversion of 20-30%. The reaction mixtures were analyzed by capillary electrophoresis on a Caliper LabChip EZ Reader to resolve phosphorylated and unphosphorylated peptide species and determine peptide substrate conversion. […] The compounds were dissolved in DMSO and evaluated at 11 concentrations to determine IC50 values.

[1] abbreviates: 0.625 nM HPK1, 22 μM ATP, 11 concentrations, read-out: HPK1 IC50.

In the case of `CC1(CNC(=O)c2cnc(Nc3ccc4c(c3)C(C)(C)OC4=O)nc2N[C@H](CO)c2ccccc2)COC1` [Example 23, 2-[(3,3-dimethyl-1-oxo-1,3-dihydro-2-benzofuran-5-yl)amino]-4-{[(1S)-2-hydroxy-1-phenylethyl]amino}-N-[(3-methyloxetan-3-yl)methyl]pyrimidine-5-carboxamide], the values for the half-maximal inhibitory concentration (IC50) on HPK1 (setting [1]) and against IRAK4 were less than 0.05 µM and 0.25 to 1 µM, respectively. Further, the “IRAK4/HPK1 Ratio” value at HPK1 is recorded as “B (B=10 to 50)”.
In the same order, the values of `CC1(C)OC(=O)c2ccc(Nc3cc(NCc4cccnc4)c(-c4nc(C56CCN(CC5)CC6)no4)cn3)nc21` [Example 85, 2-{[5-(3-{1-azabicyclo[2.2.2]octan-4-yl}-1,2,4-oxadiazol-5-yl)-4-{[(pyridin-3-yl)methyl]amino}pyridin-2-yl]amino}-7,7-dimethyl-5H,7H-furo[3,4-b]pyridin-5-one] are less than 0.05 µM, 0.25 to 1 µM and “C (C=>50)”.
As to `CC1(C)OC(=O)c2ccc(Nc3cc(N[C@H](CO)c4ccccc4)c(-c4nc(C56CCN(CC5)CC6)no4)cn3)nc21` [Example 81, 2-{[5-(3-{1-azabicyclo[2.2.2]octan-4-yl}-1,2,4-oxadiazol-5-yl)-4-{[(1S)-2-hydroxy-1-phenylethyl]amino}pyridin-2-yl]amino}-7,7-dimethyl-5H,7H-furo[3,4-b]pyridin-5-one], on HPK1, the IC50 was less than 0.05 µM and the “IRAK4/HPK1 Ratio” value is recorded as “C (C=>50)”. The molecule further displayed an IC50 against IRAK4 of 0.05 to 0.25 µM.
With `CC1(C)OC(=O)c2ccc(Nc3ncc(C(=O)NCCCn4ccnc4)c(N[C@H](CO)c4ccccc4)n3)cc21` [Example 19, 2-[(3,3-dimethyl-1-oxo-1,3-dihydro-2-benzofuran-5-yl)amino]-4-{[(1S)-2-hydroxy-1-phenylethyl]amino}-N-[3-(1H-imidazol-1-yl)propyl]pyrimidine-5-carboxamide], the IC50 was less than 0.05 µM on HPK1 (setting [1]) and 0.25 to 1 µM on IRAK4. In addition, the “IRAK4/HPK1 Ratio” value on HPK1 is recorded as “B (B=10 to 50)”.
The like results for `CC(C)(CO)c1noc(-c2cnc(Nc3ccc4c(c3)C(C)(C)OC4=O)nc2N[C@H](CO)c2ccccc2)n1` [Example 41, (S)-5-((4-((2-hydroxy-1-phenylethyl)amino)-5-(3-(1-hydroxy-2-methylpropan-2-yl)-1,2,4-oxadiazol-5-yl)pyrimidin-2-yl)amino)-3,3-dimethylisobenzofuran-1(3H)-one] were, in that order, less than 0.05 µM, 0.05 to 0.25 µM and “C (C=>50)”.
With `CCOC(=O)c1cnc(Nc2ccc3c(c2)C(C)(C)OC3=O)nc1NCc1ccccc1C(C)(C)O` [Example 71, Ethyl 2-[(3,3-dimethyl-1-oxo-1,3-dihydro-2-benzofuran-5-yl)amino]-4-({[2-(2-hydroxypropan-2-yl)phenyl]methyl}amino)pyrimidine-5-carboxylate], the IC50 on HPK1 (setting [1]) is less than 0.05 µM; against IRAK4 it was 0.25 to 1 µM. Moreover, the “IRAK4/HPK1 Ratio” value at HPK1 is “B (B=10 to 50)”.
With `CC/N=C(\NCCCN(C)C)NNC(=O)c1cnc(Nc2ccc3c(c2)C(C)(C)OC3=O)nc1N[C@H](CO)c1ccccc1` [Example 59, 1-({2-[(3,3-dimethyl-1-oxo-1,3-dihydro-2-benzofuran-5-yl)amino]-4-{[(1S)-2-hydroxy-1-phenylethyl]amino}pyrimidin-5-yl}formohydrazido)-N-[3-(dimethylamino)propyl]-N′-ethylmethanimidamide], the figures for the IC50 on HPK1 (setting [1]) and at IRAK4 were less than 0.05 µM and 0.25 to 1 µM, respectively. Besides, on HPK1, the “IRAK4/HPK1 Ratio” value is “B (B=10 to 50)”.
In the same order, the values of `O=C1OCc2cc(Nc3ncc(-c4ncccn4)c(N[C@H](CO)c4ccccc4)n3)ccc21` [Example 1, 5-[(4′-{[(1S)-2-hydroxy-1-phenylethyl]amino}-[2,5′-bipyrimidine]-2′-yl)amino]-1,3-dihydro-2-benzofuran-1-one] are less than 0.05 µM, 0.25 to 1 µM and “B (B=10 to 50)”.
With `CC(C)(C)NC(=O)c1cnc(Nc2ccc3c(c2)C(C)(C)OC3=O)nc1N[C@H](CO)c1ccccc1` [Example 11, N-tert-butyl-2-[(3,3-dimethyl-1-oxo-1,3-dihydro-2-benzofuran-5-yl)amino]-4-{[(1S)-2-hydroxy-1-phenylethyl]amino}pyrimidine-5-carboxamide], the IC50 at HPK1 (setting [1]) was less than 0.05 µM; on IRAK4, 0.25 to 1 µM. The “IRAK4/HPK1 Ratio” value on HPK1 is “B (B=10 to 50)”.
In the same order, the values of `CC1(C)OC(=O)c2ccc(Nc3ncc(-c4nnc(C5CCS(=O)(=O)CC5)o4)c(N[C@H](CO)c4ccccc4)n3)cc21` [Example 69, (S)-5-((5-(5-(1,1-dioxidotetrahydro-2H-thiopyran-4-yl)-1,3,4-oxadiazol-2-yl)-4-((2-hydroxy-1-phenylethyl)amino)pyrimidin-2-yl)amino)-3,3-dimethylisobenzofuran-1(3H)-one] are less than 0.05 µM, 0.05 to 0.25 µM and “B (B=10 to 50)”.
Take `CC1(C)OC(=O)c2ccc(Nc3ncc(C(=O)NCC4CN5CCC4CC5)c(N[C@H](CO)c4ccccc4)n3)cc21` (stereo partly drawn) [Example 25, N-({1-azabicyclo[2.2.2]octan-3-yl}methyl)-2-[(3,3-dimethyl-1-oxo-1,3-dihydro-2-benzofuran-5-yl)amino]-4-{[(1S)-2-hydroxy-1-phenylethyl]amino}pyrimidine-5-carboxamide]: at HPK1, the IC50 was less than 0.05 µM and the “IRAK4/HPK1 Ratio” value is recorded as “B (B=10 to 50)”. Besides, the IC50 at IRAK4 was in the range of 0.25 to 1 µM.
`CC1(C)OC(=O)c2ccc(Nc3ncc(C4=NCC5(CCOCC5)O4)c(N[C@H](CO)c4ccccc4)n3)cc21` [Example 27, 5-[(5-{1,8-dioxa-3-azaspiro[4.5]dec-2-en-2-yl}-4-{[(1S)-2-hydroxy-1-phenylethyl]amino}pyrimidin-2-yl)amino]-3,3-dimethyl-1,3-dihydro-2-benzofuran-1-one]: the IC50 was less than 0.05 µM on HPK1 (setting [1]) and 0.05 to 0.25 µM against IRAK4. Further, on HPK1, the “IRAK4/HPK1 Ratio” value is “B (B=10 to 50)”.
As to `CC1(C)OC(=O)c2ccc(Nc3cc(N[C@H](CO)c4ccccc4)c(-c4nc(C5CN6CCC5(F)CC6)no4)cn3)nc21` (stereo partly drawn) [Example 83, 2-{[5-(3-{4-fluoro-1-azabicyclo[2.2.2]octan-3-yl}-1,2,4-oxadiazol-5-yl)-4-{[(1S)-2-hydroxy-1-phenylethyl]amino}pyridin-2-yl]amino}-7,7-dimethyl-5H,7H-furo [3,4-b]pyridin-5-one], the IC50 was less than 0.05 µM on HPK1 and 0.05 to 0.25 µM at IRAK4. For the same molecule, the “IRAK4/HPK1 Ratio” value at HPK1 is recorded as “C (C=>50)”.
With `CC(C)(O)c1nnc(-c2cnc(Nc3ccc4c(c3)C(C)(C)OC4=O)nc2N[C@H](CO)c2ccccc2)o1` [Example 61, 5-[(4-{[(1S)-2-hydroxy-1-phenylethyl]amino}-5-[5-(2-hydroxypropan-2-yl)-1,3,4-oxadiazol-2-yl]pyrimidin-2-yl)amino]-3,3-dimethyl-1,3-dihydro-2-benzofuran-1-one], the concentration for half-maximal inhibition (IC50) on HPK1 (setting [1]) was less than 0.05 µM; at IRAK4, 0.05 to 0.25 µM. The “IRAK4/HPK1 Ratio” value at HPK1 is listed as “C (C=>50)”.
Turning to `CC1(C)OC(=O)c2ccc(Nc3ncc(C(=O)NC4CCN(Cc5ccccc5)C4)c(N[C@H](CO)c4ccccc4)n3)cc21` (stereo partly drawn) [Example 22, N-(1-benzylpyrrolidin-3-yl)-2-[(3,3-dimethyl-1-oxo-1,3-dihydro-2-benzofuran-5-yl)amino]-4-{[(1S)-2-hydroxy-1-phenylethyl]amino}pyrimidine-5-carboxamide], the IC50 at HPK1 (setting [1]) was less than 0.05 µM; against IRAK4 it was 0.25 to 1 µM. Also, the “IRAK4/HPK1 Ratio” value on HPK1 is recorded as “C (C=>50)”.
The like results for `CCCc1noc(-c2cnc(Nc3ccc4c(c3)C(C)(C)OC4=O)nc2N[C@H](CO)c2ccccc2)n1` [Example 35, 5-[(4-{[(1S)-2-hydroxy-1-phenylethyl]amino}-5-(3-propyl-1,2,4-oxadiazol-5-yl)pyrimidin-2-yl)amino]-3,3-dimethyl-1,_3-dihydro-2-benzofuran-1-one] were, in that order, less than 0.05 µM, 0.25 to 1 µM and “C (C=>50)”.
For `CC1(C)OC(=O)c2ccc(Nc3ncc(-c4nc(C56CC(N)(C5)C6)no4)c(N[C@H](CO)c4ccccc4)n3)cc21` [Example 47, 5-{[5-(3-{3-aminobicyclo[1.1.1]pentan-1-yl}-1,2,4-oxadiazol-5-yl)-4-{[(1S)-2-hydroxy-1-phenylethyl]amino}pyrimidin-2-yl]amino}-3,3-dimethyl-1,3-dihydro-2-benzofuran-1-one], the IC50 is less than 0.05 µM at HPK1 (setting [1]) and 0.25 to 1 µM against IRAK4. The “IRAK4/HPK1 Ratio” value on HPK1 is recorded as “C (C=>50)”.
